Common to all, as to assay: relative viability (nuclei count vs DMSO), 5 days (fraction); higher = more cells survive
Compound in test [1]: C=CCNC1=C2C[C@@H](C)C[C@H](OC)[C@H](O)[C@@H](C)/C=C(\C)[C@H](OC(N)=O)[C@@H](OC)/C=C\C=C(/C)C(=O)NC(=CC1=O)C2=O [17-AAG] + CC(=O)c1c(C)c2cnc(Nc3ccc(N4CCNCC4)cn3)nc2n(C2CCCC2)c1=O [Palbociclib] (partner 0.5 µM)
In outline:
(§1)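 The day after seeding in 1536-well plates, lung cancer cell lines were treated by pin tool with a single drug, or with a fixed anchor-drug dose together with five library-drug doses (not always all listed) in √10 steps. After 5 days, a combined fix-and-stain solution (final 0.05% Triton X-100, 1% formaldehyde, 1 ug/ml Hoechst) was added. Nuclei counted on 4× images gave relative viability as treated counts over vehicle counts, reported as the median of duplicate plates.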

Compound in test [2]: C=CCNC1=C2C[C@@H](C)C[C@H](OC)[C@H](O)[C@@H](C)/C=C(\C)[C@H](OC(N)=O)[C@@H](OC)/C=C\C=C(/C)C(=O)NC(=CC1=O)C2=O [17-AAG] + NC(=O)Nc1cc(-c2cccc(F)c2)sc1C(=O)N[C@H]1CCCNC1 [AZD7762] (partner 0.2 µM)
Summed up: as §1

Compound in test [3]: C=CCNC1=C2C[C@@H](C)C[C@H](OC)[C@H](O)[C@@H](C)/C=C(\C)[C@H](OC(N)=O)[C@@H](OC)/C=C\C=C(/C)C(=O)NC(=CC1=O)C2=O [17-AAG] + O=C(CCCCCCC(=O)Nc1ccccc1)NO [Vorinostat] (partner 1 µM)
In outline: as §1

Compound in test [4]: C=CCNC1=C2C[C@@H](C)C[C@H](OC)[C@H](O)[C@@H](C)/C=C(\C)[C@H](OC(N)=O)[C@@H](OC)/C=C\C=C(/C)C(=O)NC(=CC1=O)C2=O [17-AAG] + C[C@@H](Oc1cc(-c2cnn(C3CCNCC3)c2)cnc1N)c1c(Cl)ccc(F)c1Cl [Crizotinib] (partner 1 µM)
Summed up: as §1

As to NCI-H1793, the relative viability in test [1] (first compound 0.00128 µM) is 0.345; in test [1] (first compound 0.004048 µM) it was 0.295; in test [1] (first compound 0.0128 µM) it was 0.208; in test [1] (first compound 0.04048 µM), 0.14; in test [1] (first compound 0.128 µM), 0.17; in test [2] (first compound 0.00128 µM) it was 0.66. The relative viability was found to be 0.306 in test [2] (first compound 0.004048 µM); 0.173 in test [2] (first compound 0.0128 µM); 0.109 in test [2] (first compound 0.04048 µM); 0.0863 in test [2] (first compound 0.128 µM); 0.687 in test [3] (first compound 0.00128 µM); 0.656 in test [3] (first compound 0.004048 µM). The results for the relative viability in test [3] (first compound 0.0128 µM), in test [3] (first compound 0.04048 µM) and in test [3] (first compound 0.128 µM) were 0.283, 0.189 and 0.148, respectively.
In the case of NCI-H2009, the relative viability in test [1] (first compound 0.00128 µM) amounted to 0.22; in test [1] (first compound 0.004048 µM) it was 0.254; in test [1] (first compound 0.0128 µM) it was 0.258; in test [1] (first compound 0.04048 µM), 0.203; in test [1] (first compound 0.128 µM), 0.0584; in test [4] (first compound 0.00128 µM), 1.12. Besides, the relative viability in test [4] (first compound 0.004048 µM) came to 1.01; in test [4] (first compound 0.0128 µM), 0.99; in test [4] (first compound 0.04048 µM), 0.496; in test [4] (first compound 0.128 µM), 0.0881; in test [3] (first compound 0.00128 µM) it was 0.681; in test [3] (first compound 0.004048 µM) it was 0.724. The relative viability was determined as 0.735 in test [3] (first compound 0.0128 µM), 0.699 in test [3] (first compound 0.04048 µM) and 0.276 in test [3] (first compound 0.128 µM).
NCI-H2023: the relative viability is 0.374 in test [1] (first compound 0.00128 µM); 0.195 in test [1] (first compound 0.004048 µM); 0.102 in test [1] (first compound 0.0128 µM); 0.0665 in test [1] (first compound 0.04048 µM); 0.0605 in test [1] (first compound 0.128 µM); 0.627 in test [4] (first compound 0.00128 µM). Moreover, the relative viability in test [4] (first compound 0.004048 µM) turned out to be 0.575; in test [4] (first compound 0.0128 µM), 0.128; in test [4] (first compound 0.04048 µM) it was 0.0736; in test [4] (first compound 0.128 µM) it was 0.063; in test [3] (first compound 0.00128 µM), 0.572; in test [3] (first compound 0.004048 µM), 0.37. Also, the relative viability amounted to 0.112 in test [3] (first compound 0.0128 µM), 0.0782 in test [3] (first compound 0.04048 µM) and 0.0643 in test [3] (first compound 0.128 µM).
Regarding NCI-H2228, the relative viability in test [1] (first compound 0.00128 µM) turned out to be 0.672; in test [1] (first compound 0.004048 µM), 0.483; in test [1] (first compound 0.0128 µM) it was 0.131; in test [1] (first compound 0.04048 µM), 0.101; in test [1] (first compound 0.128 µM), 0.107; in test [4] (first compound 0.00128 µM), 0.528. Also, the relative viability in test [4] (first compound 0.004048 µM) was determined as 0.245; in test [4] (first compound 0.0128 µM), 0.176; in test [4] (first compound 0.04048 µM) it was 0.174; in test [4] (first compound 0.128 µM), 0.141; in test [3] (first compound 0.00128 µM), 0.691; in test [3] (first compound 0.004048 µM) it was 0.588. In addition, the relative viability in test [3] (first compound 0.0128 µM) worked out at 0.168; in test [3] (first compound 0.04048 µM), 0.167; in test [3] (first compound 0.128 µM), 0.12.
Regarding NCI-H2342, the relative viability was 0.458 in test [1] (first compound 0.00128 µM); 0.542 in test [1] (first compound 0.004048 µM); 0.504 in test [1] (first compound 0.0128 µM); 0.495 in test [1] (first compound 0.04048 µM); 0.525 in test [1] (first compound 0.128 µM); 0.441 in test [2] (first compound 0.00128 µM). Also, the relative viability in test [2] (first compound 0.004048 µM) is 0.739; in test [2] (first compound 0.0128 µM), 0.468; in test [2] (first compound 0.04048 µM), 0.447; in test [2] (first compound 0.128 µM), 0.359; in test [3] (first compound 0.00128 µM), 0.651; in test [3] (first compound 0.004048 µM) it was 0.86. Further, the relative viability in test [3] (first compound 0.0128 µM) came out at 0.715; in test [3] (first compound 0.04048 µM), 0.668; in test [3] (first compound 0.128 µM), 0.409.

Values taken from the supplement of paper PMC10307832.
